Test results taken from US10543183B2, “Treatment and diagnosis of melanoma” (The Rockefeller University, priority 2012, dated 2020).
Structures can show the parent of a compound that is named as a salt.

Assays:
[1] = system: human melanoma cells (MeWo, MeWo-LM2, HT-144, SK-Mel-2, SK-Mel-334.2); experiment: trans-well matrigel cell invasion assay, melanoma cells; type: cell-based; conditions: for ability of melanoma cells to invade through matrigel: MeWo, HT-144, SK-Mel-2, SK-Mel-334.2, 1 μM for 72 hours
Experimental: Cancer cells were serum-starved in 0.2% FBS DMEM-based media for 12 hours. Trans-well invasion chambers (354480, BD Biosciences, Bedford, Mass.) were pre-equilibrated prior to beginning the assay by adding 0.5 mL of starvation media to the top and bottom chambers. After 30 minutes, the media in the top chamber was removed, and 0.5 mL of media containing 1×10^5 cancer cells was added into each matrigel-coated trans-well insert and incubated at 37° C. for 24 hours. For neutralization antibody and/or recombinant protein experiments, antibody/recombinant protein was added to each well at the start of the assay at the following concentrations as indicated in the figures: 5-40 μg/mL anti-ApoE 1D7 (Heart Institute, University of Ottawa), 5-40 μg/mL anti-IgG (AB-108-C, R&D Systems, Minneapolis, Minn.), 100 μM recombinant human ApoE3 (4696, BioVision, Mountain View, Calif.), and 100 μM BSA (A2153, Sigma-Aldrich). Upon completion of the assay, matrigel-coated inserts were washed with PBS, the cells at the top side of each insert were scraped off, and the inserts were fixed in 4% paraformaldehyde for 15 minutes. The inserts were then cut out and mounted onto slides using VectaShield mounting medium containing DAPI (H-1000, Vector Laboratories, Burlingame, Calif.). The basal side of each insert was imaged using an inverted fluorescence microscope (Zeiss Axiovert 40 CFL) at 5× magnification, taking three representative images for each insert. The number of invaded cells was quantified using ImageJ (NIH).
The cell invasion assay was performed as previously described in detail (Pencheva et al., 2012) using a trans-well matrigel invasion chamber system (354480, BD Biosciences). In brief, various melanoma cells were cultured in the presence of DMSO, GW3965, T0901317, or Bexarotene at 1 μM for 56 hours, after which melanoma cells were switched to starvation media (0.2% FBS) for 16 hours in the presence of each drug. Following starvation, cells were seeded into matrigel-coated trans-well inserts, and the invasion assay was allowed to proceed for 24 hours at 37° C. For ApoE antibody neutralization experiments, 40 μg/mL 1D7 anti-ApoE blocking antibody (Heart Institute, University of Ottawa, Ottawa, Canada) or 40 μg/mL anti-IgG control antibody (AB-108-C, R&D Systems, Minneapolis, Minn.) was added to each trans-well insert at the start of the assay.
The cells were then serum starved for 16 hours in 0.2% FBS media in the presence of each corresponding drug or DMSO. Following serum starvation, the cells were subjected to the trans-well invasion assay using a matrigel invasion chamber system (354480, BD Biosciences). Invasion chambers were pre-equilibrated prior to the assay by adding 0.5 mL of starvation media to the top and bottom wells. Meanwhile, cancer cells were trypsinized and viable cells were counted using trypan blue. Cancer cells were then resuspended at a concentration of 2×10^5 cells/1 mL starvation media, and 0.5 mL of cell suspension, containing 1×10^5 cells, was seeded into each trans-well. The invasion assay was allowed to proceed for 24 hours at 37° C. […] Following fixation, the inserts were washed in PBS, cut out, and mounted onto slides using VectaShield mounting medium containing DAPI nuclear stain (H-1000, Vector Laboratories). The basal side of each insert was imaged using an inverted fluorescence microscope (Zeiss Axiovert 40 CFL) at 5× magnification, and the number of DAPI-positive cells was quantified using ImageJ.

[2] = system: B16F10 mouse melanoma cells; experiment: subcutaneous B16F10 tumor growth in mice; type: in vivo; conditions: for primary tumor growth in vivo (FIG. 21): mouse; for suppression of tumor growth by B16F10 cells: 20 mg/kg, tumors 5-10 mm3 at start, immunocompetent mice
[3] = system: ApoE promoter fused to ME.1 or ME.2 in MeWo cells; experiment: ApoE promoter activity assay (luciferase reporter); type: cell-based, human; conditions: 1 μM, 24 hours
From the text: The ApoE promoter, consisting of a sequence spanning 980 base pairs upstream and 93 base pairs downstream of the ApoE gene, was cloned into a pGL3-Basic vector (E1751, Promega Corporation, Madison, Wis.) upstream of the firefly luciferase gene using NheI and SacI restriction enzymes. Then, multi-enhancer elements 1 (ME.1) and 2 (ME.2) were cloned directly upstream of the ApoE promoter using MluI and […] restriction enzymes. To assess ApoE promoter- and ME.1/ME.2-driven transcriptional activation by LXR agonists, 5×10^4 MeWo cells were seeded into a 24-well plate. The following day, 100 ng of pGL3-ME.1/ME.2-ApoE promoter construct and 2 ng of pRL-CMV renilla luciferase construct (E2261, Promega) were co-transfected into cells in the presence of DMSO, GW3965, or T0901317 at 1 μM, each condition in quadruplicate. To assess transcriptional activation by LXRα or LXRβ, 5×10^4 MeWo cells expressing a control shRNA or shRNA targeting LXRα or LXRβ were seeded into a 24-well plate. […] After 24 hours, cells were lysed, and cell lysate was analyzed for firefly and renilla luciferase activity using the Dual Luciferase Assay System (E1960, Promega) and a Bio-Tek Synergy NEO Microplate Reader. Firefly luciferase signal was normalized to renilla luciferase signal and all data are expressed relative to the luciferase activity ratio measured in the DMSO-treated control cells.

Molecule | ability of melanoma cells to invade through matrigel [1] | tumor cell invasion ([1]; parental MeWo cells pre-treated for 48 hours) | suppression of tumor growth in mice genetically inactivated for ApoE ([2]; ApoE−/− mice, diet 20 mg/kg) | tumor growth inhibition upon LXRα inactivation ([2]; LXRα−/− mice, diet 20 mg/kg) | ability to suppress melanoma tumor growth upon genetic ablation of systemic LXRβ ([2]; LXRβ−/− mice, diet 20 mg/kg) | primary tumor growth in vivo (FIG. 21) [2] | suppression of tumor growth by B16F10 cells ([2]; oral) [%] | reduction in tumor growth by B16F10 cells ([2]; oral, 100 mg/kg) [%] | reduction in growth of established large B16F10 tumors ([2]; tumors ~150 mm3 at start, chow 150 mg/kg) | activity of luciferase reporter containing the ApoE promoter fused to ME.1 or ME.2 [3] | invasion by metastatic LM2 cells ([1]; 100 μM added to cell media)
O=C(O)Cc1cccc(OCCCN(Cc2cccc(C(F)(F)F)c2Cl)CC(c2ccccc2)c2ccccc2)c1 [GW3965 2, 3-[3-[N-(2-Chloro-3-trifluoromethylbenzyl)-(2,2-diphenylethyl)amino]propyloxy] phenylacetic acid hydrochloride] | consistently suppressed | decreased | completely ineffective | had no effect | blocked | inhibit | 67 | 80 | roughly 50% | enhance | 
O=S(=O)(c1ccccc1)N(CC(F)(F)F)c1ccc(C(O)(C(F)(F)F)C(F)(F)F)cc1 [T0901317 1] | consistently suppressed |  |  |  |  | inhibit | 61 |  |  | enhance | 
recombinant ApoE3: recombinant human ApoE3 (4696, BioVision) |  |  |  |  |  |  |  |  |  |  | significantly suppressed
